Test system: B16 Melanoma
Settings: in vivo

## O=P1(N(CCCl)CCCl)NCCCO1 (centres unmarked) [Cyclophosphamide, cyclophosphamide]
  T-C: 27 days

## O=P1(NCCCl)OCCCN1CCCl (centres unmarked) [Ifosfamide]
  T-C: 18 days
